Assay results published in patent US20250326749A1, “COMPOUNDS, COMPOSITIONS, AND METHODS OF USING THEREOF” (Sionna Therapeutics Inc., priority 2022, published 2025).

molecular target: T1, ΔF508-CFTR (Homo sapiens, UniProt P13569, DEL508-508); assay: ΔF508-CFTR-HRP trafficking assay (cell surface expression of ΔF508-CFTR); assay type: cell-based; details: CFSMEo- cells transiently transfected with ΔF508-CFTR-HRP; test agent 3 μM, 48 h; HRP chemiluminescence
T1 construct: expressed in transfected cells; host or cells: CFSMEo- (human CF submucosal gland epithelial cells, ΔF508/Q2X), transiently transfected by nucleofection
T1 sequence (P13569 with tags, fused parts or gaps DEL508-508): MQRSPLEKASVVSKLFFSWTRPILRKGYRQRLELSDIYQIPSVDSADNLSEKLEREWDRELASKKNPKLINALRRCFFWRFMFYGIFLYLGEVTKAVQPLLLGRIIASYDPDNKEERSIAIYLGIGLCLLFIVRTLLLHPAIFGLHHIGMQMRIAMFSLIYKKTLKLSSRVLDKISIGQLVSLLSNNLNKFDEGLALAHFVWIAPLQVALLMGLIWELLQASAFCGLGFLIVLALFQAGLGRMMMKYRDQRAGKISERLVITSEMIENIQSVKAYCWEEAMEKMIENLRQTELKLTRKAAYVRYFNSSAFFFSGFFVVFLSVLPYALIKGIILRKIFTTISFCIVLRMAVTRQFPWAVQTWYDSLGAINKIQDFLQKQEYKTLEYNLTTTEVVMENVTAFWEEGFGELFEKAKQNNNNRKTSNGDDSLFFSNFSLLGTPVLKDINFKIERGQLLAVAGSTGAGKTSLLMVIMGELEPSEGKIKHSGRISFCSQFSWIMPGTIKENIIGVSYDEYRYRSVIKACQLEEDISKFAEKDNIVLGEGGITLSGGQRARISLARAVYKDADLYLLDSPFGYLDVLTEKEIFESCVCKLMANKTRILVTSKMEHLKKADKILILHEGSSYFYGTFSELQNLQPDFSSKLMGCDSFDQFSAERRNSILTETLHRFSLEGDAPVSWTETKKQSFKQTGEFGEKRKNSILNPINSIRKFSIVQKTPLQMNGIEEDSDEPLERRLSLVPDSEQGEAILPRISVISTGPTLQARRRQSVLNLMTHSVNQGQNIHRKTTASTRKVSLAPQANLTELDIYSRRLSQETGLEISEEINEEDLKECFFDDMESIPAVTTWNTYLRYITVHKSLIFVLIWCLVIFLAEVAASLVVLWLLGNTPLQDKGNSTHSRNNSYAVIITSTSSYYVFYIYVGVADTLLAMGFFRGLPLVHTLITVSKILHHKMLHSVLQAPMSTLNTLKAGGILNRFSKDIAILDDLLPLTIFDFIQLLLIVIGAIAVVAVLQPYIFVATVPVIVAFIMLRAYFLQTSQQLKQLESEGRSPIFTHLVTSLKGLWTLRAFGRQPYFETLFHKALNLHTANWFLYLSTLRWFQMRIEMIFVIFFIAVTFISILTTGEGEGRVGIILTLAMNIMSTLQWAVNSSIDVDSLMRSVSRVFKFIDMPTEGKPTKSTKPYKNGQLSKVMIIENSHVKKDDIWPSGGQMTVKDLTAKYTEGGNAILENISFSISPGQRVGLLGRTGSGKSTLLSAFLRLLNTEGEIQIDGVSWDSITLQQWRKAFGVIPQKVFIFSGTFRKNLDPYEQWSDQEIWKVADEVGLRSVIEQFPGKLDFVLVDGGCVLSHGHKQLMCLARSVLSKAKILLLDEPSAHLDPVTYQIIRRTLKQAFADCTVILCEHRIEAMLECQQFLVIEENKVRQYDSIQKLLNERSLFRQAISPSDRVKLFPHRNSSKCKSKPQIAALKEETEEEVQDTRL
From the text: Test agents were screened for their effect on cell surface expression of ΔF508-CFTR using the ΔF508-CFTR-HRP trafficking assay. For this assay, a ΔF508-CFTR expression construct was designed with an in-frame insertion of a horseradish peroxidase (HRP) tag into the 4th extracellular loop of CFTR. The HRP tag would be presented extracellularly, in cells transiently transfected with the ΔF508-CFTR-HRP construct, following correction of the ΔF508-CFTR trafficking defect. The quantity of ΔF508-CFTR-HRP expressed on the plasma membrane could therefore be determined by measuring an HRP-dependent signal after the application of a cell-impermeable HRP substrate.
In brief, CF submucosal gland epithelial cells (CFSMEo-), derived from the airways of a CF patient (ΔF508/Q2X) and provided by Dr. Dieter Gruenert, University of California-San Francisco, were cultured at 37° C. with 5% CO2 in minimum essential medium (MEM) with Earle's salt and nonessential amino acids, supplemented with 10% (volume per volume [v/v]) fetal bovine serum, 2 mM L-glutamine and 1× (v/v) penicillin/streptomycin and grown in tissue culture-treated flasks coated with an extracellular matrix (ECM) cocktail consisting of 10 μg/mL human fibronectin, 30 μg/mL bovine collagen type I, and 100 μg/mL bovine serum albumin in LHC basal medium. These CFSMEo^− cells were transiently transfected with 4 μg of the ΔF508-CFTR-HRP expression construct using the Lonza 4D-Nucleofector Core unit (Lonza, Catalogue No. AAF-1002B) with the X unit (Lonza, Catalogue No. AAF-1002X) and SF Cell Line 4D-Nucleofector X Kit L (Lonza, Catalogue No. V4XC-2024) according to the manufacturer's instructions and plated at 1.2×10^4 cells/well onto collagen-coated, 96-well plates (Corning Inc.). Twenty-four h post-transfection, cells were treated with test agents, solubilized in DMSO at a concentration of 3 μM in replicates of 3, and allowed to incubate for 48 h. To detect HRP expression, cell culture media was removed, cells were washed with PBS and 100 μL of Luminata Forte HRP chemiluminescent substrate (EMD Millipore, Burlington, MA) was added to each well. Following a 5-minute incubation, chemiluminescence was measured in relative luminescent units (RLUs) using an EnVision plate reader (Perkin Elmer, Waltham, MA).
The ΔF508-CFTR-HRP trafficking data was normalized to the vehicle treated control (0.3% DMSO), followed by calculation of the mean, standard deviation, and standard error. If the test agent increased cell surface expression of ΔF508-CFTR-HRP relative to the vehicle-treated control, then that test agent was considered a ΔF508-CFTR corrector. Based on the description above, the biological activity of the examples in this disclosure is collected in Table 2.

SMILES	RLUs: ΔF508-CFTR-HRP trafficking data normalized to the vehicle treated control (0.3% DMSO)
C[C@H](Oc1cccc(-n2nc(C(F)(F)F)c3c2C(O[C@H]2CC[C@H](C(=O)O)CC2)CCC3)c1)c1ccc2c(c1)OC(F)(F)O2 (relative stereo) [Example 37]	A (RLU 5.0 μM-10 μM)
C[C@H](Oc1cncc(-n2nc(C(F)(F)F)c3c2[C@@H](OC24CC(C(=O)O)(C2)C4)CCC3)c1)c1cc2c(cc1F)OC(F)(F)O2 (single isomer, unassigned) [74 (P1)]	A (RLU 5.0 μM-10 μM)
C[C@H](Oc1cncc(-n2nc(C(F)(F)F)c3c2[C@H](OC24CC(C(=O)O)(C2)C4)CCC3)c1)c1cc2c(cc1F)OC(F)(F)O2 (single isomer, unassigned) [74 (P2)]	A (RLU 5.0 μM-10 μM)
C[C@H](Oc1cc(-n2nc(C(F)(F)F)c3c2[C@@H](OC24CC(C(=O)O)(C2)C4)CCC3)cnc1F)c1cc2c(cc1F)OC(F)(F)O2 (single isomer, unassigned) [75 (P1)]	C (RLU 0.0 μM-3.5 μM)
C[C@H](Oc1cc(-n2nc(C(F)(F)F)c3c2[C@H](OC24CC(C(=O)O)(C2)C4)CCC3)cnc1F)c1cc2c(cc1F)OC(F)(F)O2 (single isomer, unassigned) [75 (P2)]	C (RLU 0.0 μM-3.5 μM)
C[C@H](Oc1cc(-n2nc(C(F)(F)F)c3c2[C@@H](OC24CC(C(=O)O)(C2)C4)CCC3)ccc1F)c1ccc2c(c1)OC(F)(F)O2 (single isomer, unassigned) [76 (P1)]	C (RLU 0.0 μM-3.5 μM)
C[C@H](Oc1cc(-n2nc(C(F)(F)F)c3c2[C@H](OC24CC(C(=O)O)(C2)C4)CCC3)ccc1F)c1ccc2c(c1)OC(F)(F)O2 (single isomer, unassigned) [76 (P2)]	C (RLU 0.0 μM-3.5 μM)
C[C@H](Oc1cccc(-n2nc(C(F)(F)F)c3c2[C@@H](OC24CC(C(=O)O)(C2)C4)CCC3)n1)c1ccc2c(c1)OC(F)(F)O2 (single isomer, unassigned) [77 (P1)]	B (RLU 3.5 μM-5.0 μM)
C[C@H](Oc1cccc(-n2nc(C(F)(F)F)c3c2[C@H](OC24CC(C(=O)O)(C2)C4)CCC3)n1)c1ccc2c(c1)OC(F)(F)O2 (single isomer, unassigned) [77 (P2)]	B (RLU 3.5 μM-5.0 μM)
C[C@H](Oc1cc(-n2nc(C(F)(F)F)c3c2[C@@H](OC24CC(CC(=O)O)(C2)C4)CCC3)ccc1F)c1ccc2c(c1)OC(F)(F)O2 (single isomer, unassigned) [78 (P1)]	C (RLU 0.0 μM-3.5 μM)
C[C@H](Oc1cc(-n2nc(C(F)(F)F)c3c2[C@H](OC24CC(CC(=O)O)(C2)C4)CCC3)ccc1F)c1ccc2c(c1)OC(F)(F)O2 (single isomer, unassigned) [78 (P2)]	C (RLU 0.0 μM-3.5 μM)
C[C@H](Oc1cc(-n2nc(C(F)(F)F)c3c2[C@@H](O[C@H]2CC[C@H](C(=O)O)CC2)CCC3)cnc1F)c1ccc2c(c1)OC(F)(F)O2 (single isomer, unassigned) [79 (P1)]	B (RLU 3.5 μM-5.0 μM)
C[C@H](Oc1cc(-n2nc(C(F)(F)F)c3c2[C@@H](O[C@H]2CC[C@H](C(=O)O)CC2)CCC3)cc(F)n1)c1ccc2c(c1)OC(F)(F)O2 (single isomer, unassigned) [80 (P1)]	A (RLU 5.0 μM-10 μM)
C[C@H](Oc1cc(-n2nc(C(F)(F)F)c3c2[C@H](OC24CCC(C(=O)O)(CC2)CC4)CCC3)cc(F)n1)c1ccc2c(c1)OC(F)(F)O2 (single isomer, unassigned) [81 (P1)]	A (RLU 5.0 μM-10 μM)
C[C@H](Oc1cc(-n2nc(C(F)(F)F)c3c2[C@@H](OC24CCC(C(=O)O)(CC2)CC4)CCC3)cc(F)n1)c1ccc2c(c1)OC(F)(F)O2 (single isomer, unassigned) [81 (P2)]	C (RLU 0.0 μM-3.5 μM)
C[C@H](Oc1cc(-n2nc(C(F)(F)F)c3c2[C@@H](OC[C@H]2CC[C@H](C(=O)O)CC2)CCC3)cnc1F)c1ccc2c(c1)OC(F)(F)O2 (single isomer, unassigned) [82 (P1)]	B (RLU 3.5 μM-5.0 μM)
C[C@H](Oc1cc(-n2nc(C(F)(F)F)c3c2[C@H](OC[C@H]2CC[C@H](C(=O)O)CC2)CCC3)cnc1F)c1ccc2c(c1)OC(F)(F)O2 (single isomer, unassigned) [82 (P2)]	A (RLU 5.0 μM-10 μM)
C[C@H](Oc1cccc(-n2nc(C(F)(F)F)c3c2[C@@H](O[C@H]2C[C@H](C(=O)O)C2)CCC3)n1)c1cc2c(cc1F)OC(F)(F)O2 (single isomer, unassigned) [83 (P1)]	B (RLU 3.5 μM-5.0 μM)
C[C@H](Oc1cccc(-n2nc(C(F)(F)F)c3c2[C@H](O[C@H]2C[C@H](C(=O)O)C2)CCC3)n1)c1cc2c(cc1F)OC(F)(F)O2 (single isomer, unassigned) [83 (P2)]	C (RLU 0.0 μM-3.5 μM)
C[C@H](Oc1nc(-n2nc(C(F)(F)F)c3c2[C@@H](O[C@H]2C[C@H](C(=O)O)C2)CCC3)ccc1F)c1cc2c(cc1F)OC(F)(F)O2 (single isomer, unassigned) [84 (P1)]	B (RLU 3.5 μM-5.0 μM)
C[C@H](Oc1nc(-n2nc(C(F)(F)F)c3c2[C@H](O[C@H]2C[C@H](C(=O)O)C2)CCC3)ccc1F)c1cc2c(cc1F)OC(F)(F)O2 (single isomer, unassigned) [84 (P2)]	C (RLU 0.0 μM-3.5 μM)
C[C@H](Oc1cc(-n2nc(C(F)(F)F)c3c2[C@@H](OC24CC(c5nc(=O)o[nH]5)(C2)C4)CCC3)ccc1F)c1ccc2c(c1)OC(F)(F)O2 (single isomer, unassigned) [85 (P1)]	C (RLU 0.0 μM-3.5 μM)
C[C@H](Oc1cc(-n2nc(C(F)(F)F)c3c2[C@H](OC24CC(c5nc(=O)o[nH]5)(C2)C4)CCC3)ccc1F)c1ccc2c(c1)OC(F)(F)O2 (single isomer, unassigned) [85 (P2)]	B (RLU 3.5 μM-5.0 μM)
C[C@H](Oc1cc(-n2nc(C(F)(F)F)c3c2[C@@H](OC24CC(c5nc(=O)o[nH]5)(C2)C4)CCC3)ccc1F)c1cc2c(cc1F)OC(F)(F)O2 (single isomer, unassigned) [86 (P1)]	C (RLU 0.0 μM-3.5 μM)
C[C@H](Oc1cc(-n2nc(C(F)(F)F)c3c2[C@H](OC24CC(c5nc(=O)o[nH]5)(C2)C4)CCC3)ccc1F)c1cc2c(cc1F)OC(F)(F)O2 (single isomer, unassigned) [86 (P2)]	C (RLU 0.0 μM-3.5 μM)
C[C@H](Nc1cc(-n2nc(C(F)(F)F)c3c2[C@@H](NC24CC(C(=O)O)(C2)C4)CCC3)ccc1F)c1ccc2c(c1)OC(F)(F)O2 (single isomer, unassigned) [94 (P1)]	C (RLU 0.0 μM-3.5 μM)
C[C@H](Nc1cc(-n2nc(C(F)(F)F)c3c2[C@H](NC24CC(C(=O)O)(C2)C4)CCC3)ccc1F)c1ccc2c(c1)OC(F)(F)O2 (single isomer, unassigned) [94 (P2)]	C (RLU 0.0 μM-3.5 μM)
C[C@H](Nc1cc(-n2nc(C(F)(F)F)c3c2[C@H](OC24CC(C(=O)O)(C2)C4)CCC3)ccc1F)c1ccc2c(c1)OC(F)(F)O2 (single isomer, unassigned) [95 (P2)]	C (RLU 0.0 μM-3.5 μM)
C[C@H](Nc1cc(-n2nc(C(F)(F)F)c3c2[C@@H](OC24CC(C(=O)O)(C2)C4)CCC3)ccc1F)c1cc2c(cc1F)OC(F)(F)O2 (single isomer, unassigned) [96 (P1)]	B (RLU 3.5 μM-5.0 μM)
